Assay: Microcapsule fragrance loading quantification via GC
Assay type: physicochemical
Settings: for Composition 2 (encapsulate wt %): level of the fragrance material in microcapsules of Example 21B; for Composition 2 (oil wt %) / Composition 1 (oil wt %): share of the fragrance material in the encapsulated oil; for Composition 2 (oil wt %): Example 21B; for Composition 1 (encapsulate wt %): level of the fragrance material in microcapsules of Example 21A; for Composition 1 (oil wt %): Example 21A
Excerpt: Fragrance levels in the microcapsule can be determined by extraction of the fragrance and injection into a GC column. An Agilent 8890 gas chromatograph is used, equipped with a HP-5MS column, and using hydrogen as carrier gas. Quantification is achieved by use of a calibration curve for the given fragrance material diluted in ethanol.
To measure the total level of fragrance in an encapsulate sample, the capsules must first be broken by sonication, for example 1.0 g of encapsulate in 2.0 g of DI water with a Bandelin Sonopuls HD4200 ultrasonicator, equipped with probe TS104 for 1 minute at 30% amplitude (around 1.5 KJ in total). A few drops of aqueous potassium hydroxide solution (10% wt) are added before sonication to raise the pH of the solution above 11. While sonicating, ice is used to keep the temperature below room temperature (20° C.) to avoid any loss of fragrance through evaporation. A microscope is used to check visually if the capsules are fully broken. If not, sonication is repeated. Ethanol is added to the mixture, which is then mixed and centrifuged. The supernatant is collected and retained as the first extraction. The residue is mixed with ethanol again and centrifuged. The supernatant is collected and added to the first extraction. This is then diluted as appropriate and injected into the GC for analysis.
To measure the level of free fragrance in the sample (i.e. the level of un-encapsulated fragrance), the encapsulate slurry is well mixed in DI water and filtered using a sterile cell strainer (40 μm Nylon mesh). The filtrate is diluted with ethanol and injected into the GC for analysis.
The encapsulated fragrance level is the difference between the total fragrance and the free fragrance levels.

Q: What does the source list for `O=C(OCc1ccccc1)c1ccccc1O` [Benzyl salicylate]?
A: Composition 2 (encapsulate wt %): 0.66 wt %; Composition 2 (oil wt %): 22.5 wt %

Q: For `OC/C=C/c1ccccc1` [Cinnamic alcohol], which “Composition 1 (encapsulate wt %)” value is on record?
A: The value was 0.01 wt %.

Q: What about the “Composition 1 (oil wt %)” value of the same molecule?
A: The value was 0.5 wt %.

Q: With `C/C=C/C(=O)C1C(C)C=CCC1(C)C` (centres unmarked) [Delta damascone] as the molecule, how does the “Composition 1 (encapsulate wt %)” value read?
A: Its value is 0.54 wt %.

Q: What about the “Composition 2 (encapsulate wt %)” value of the same molecule?
A: Its value is 0.53 wt %.

Q: What about the “Composition 1 (oil wt %)” value of the same molecule?
A: Its value is 29.5 wt %.

Q: And the “Composition 2 (oil wt %)” value?
A: Its value is 18.1 wt %.

Q: Which results are given for `C=C(C)[C@H]1CC=C(C)CC1` [Dipentene]?
A: Composition 2 (encapsulate wt %): 0.63 wt %; Composition 2 (oil wt %): 21.5 wt %

Q: For `c1ccc(Oc2ccccc2)cc1` [Diphenyl oxide], which “Composition 2 (encapsulate wt %)” value is on record?
A: Its value is 0.59 wt %.

Q: What about the “Composition 2 (oil wt %)” value of the same molecule?
A: The value was 20.1 wt %.

Q: With `CC(C)=CCC/C(C)=C/CO` [Geraniol] as the molecule, how does the “Composition 1 (encapsulate wt %)” value read?
A: The value was 0.11 wt %.

Q: What about the “Composition 1 (oil wt %)” value of the same molecule?
A: Its value is 6.0 wt %.

Q: For `CCC=C(C)C(O)CCCCC` (centres unmarked) [Undecavertol], which “Composition 1 (encapsulate wt %)” value is on record?
A: Its value is 0.39 wt %.

Q: What about the “Composition 1 (oil wt %)” value of the same molecule?
A: The value was 21.3 wt %.

Q: Which “Composition 1 (encapsulate wt %)” value does the source give for `CCCCCCCCCCCC#N` [dodecane nitrile] here?
A: Its value is 0.79 wt %.

Q: What about the “Composition 1 (oil wt %)” value of the same molecule?
A: Its value is 43.2 wt %.

Q: With “Ortho tertiary butyl cyclo hexyl acetate” as the molecule, how does the “Composition 2 (encapsulate wt %)” value read?
A: Its value is 0.52 wt %.

Q: What about the “Composition 2 (oil wt %)” value of the same molecule?
A: Its value is 17.7 wt %.
